The values below come from ChEMBL document CHEMBL3085777, “Improved synthesis and in vitro evaluation of the cytotoxic profile of oxysterols oxidized at C4 (4α- and 4β-hydroxycholesterol) and C7 (7-ketocholesterol, 7α- and 7β-hydroxycholesterol) on cells of the central nervous system” (Eur J Med Chem, 2013).

Where only a bound is given, the exact number is not on record here.

Data set [1] relates to C6. The data set is described as follows: Cytostatic activity against rat C6 cells assessed as growth inhibition after 24 hrs by trypan blue-based cell counting method. Type of data set: functional. Particulars: C6, 24 h.
In data set [2] the test system is C6. As to the kind of experiment: Cytostatic activity against rat C6 cells assessed as cell viability after 24 hrs by trypan blue-based cell counting method. Type of data set: functional. Particulars: C6, 24 h, read-out: LD50 (the source's name).
Data set [3] can be described thus: Cytostatic activity against mouse 158N cells assessed as growth inhibition after 24 hrs by trypan blue-based cell counting method.
Data set [4] is described as follows: Cytostatic activity against mouse 158N cells assessed as cell viability after 24 hrs by trypan blue-based cell counting method. Particulars: read-out: LD50.
Data set [5] is described as follows: Growth inhibition of BALB/cJRj mouse astrocytes/oligodendrocytes at 50 uM after 24 hrs by trypan blue-based cell counting method.
A short description of data set [6]: Cytotoxicity against BALB/cJRj mouse astrocytes/oligodendrocytes assessed as cell viability at 50 uM after 24 hrs by trypan blue-based cell counting method. To be noted: for Activity: 24 h, 50 µM; for viability at 24 h, 50 µM: BALB/cJRj, astrocytes/oligodendrocytes, read-out: Activity.
A short description of data set [7]: Growth inhibition of human SK-N-BE cells after 24 hrs by trypan blue-based cell counting method. In kind it is functional.
Data set [8] can be described thus: Cytotoxicity against human SK-N-BE cells assessed as cell viability after 24 hrs by trypan blue-based cell counting method. In kind it is functional. Particulars: read-out: LD50 (the source's name).
In data set [9] the test system is C6. The data set is described as follows: Growth inhibition of rat C6 cells after 24 hrs by trypan blue-based cell counting method. In kind it is functional. Particulars: C6, 24 h.
Data set [10] concerns C6. The data set is described as follows: Cytotoxicity against rat C6 cells assessed as cell viability after 24 hrs by trypan blue-based cell counting method. In kind it is functional. To be noted: C6, 24 h, read-out: LD50 (the source's name).
A short description of data set [11]: Growth inhibition of mouse 158N cells after 24 hrs by trypan blue-based cell counting method.
A short description of data set [12]: Cytotoxicity against mouse 158N cells assessed as cell viability after 24 hrs by trypan blue-based cell counting method. To be noted: read-out: LD50.

For the compound `CC(C)CCC[C@@H](C)[C@H]1CC[C@H]2[C@@H]3CC=C4[C@H](O)[C@@H](O)CC[C@]4(C)[C@H]3CC[C@]12C`, the results for the IC50 in data set [1], in data set [3] and in [7] were not below 160 µM, 40 µM and more than 160 µM, respectively. The CC50 in data set [2] and in [8] was more than 160 µM throughout. Besides, the CC50 at 24 h in data set [4] was more than 160 µM. The Activity entry in data set [5] and in data set [6] was “Non-toxic” each time.
With `CC(C)CCC[C@@H](C)[C@H]1CC[C@H]2[C@@H]3[C@H](O)C=C4C[C@@H](O)CC[C@]4(C)[C@H]3CC[C@]12C`, the Activity result in data set [5] and in data set [6] was “Non-toxic” in each case. The values for the IC50 in [7], in data set [9] and in data set [11] were not below 160 µM, 40 µM and 15 µM, respectively. Further, the CC50 in [8] is more than 160 µM; in data set [10] it was not below 160 µM. Also, the CC50 at 24 h in data set [12] amounted to 60 µM.
For `CC(C)CCC[C@@H](C)[C@H]1CC[C@H]2[C@@H]3CC=C4[C@@H](O)[C@@H](O)CC[C@]4(C)[C@H]3CC[C@]12C`, the IC50 (commonly the concentration at which inhibition is half-maximal) in data set [1] was not below 160 µM; in data set [3], 30 µM; in data set [7] it was more than 160 µM. Further, the CC50 in [2] and in data set [8] was more than 160 µM each time. Moreover, the CC50 at 24 h in data set [4] was more than 160 µM. The Activity entry in [5] and in data set [6] was “Non-toxic” in each case.
`CC(C)CCC[C@@H](C)[C@H]1CC[C@H]2[C@@H]3[C@@H](O)C=C4C[C@@H](O)CC[C@]4(C)[C@H]3CC[C@]12C`: in data set [5], the Activity result was “Toxic”. For the same compound, the viability at 24 h, 50 µM in data set [6] came out at 19.9%. For the same compound, the values for the IC50 in data set [7], in [9] and in [11] were 20 µM, 15 µM and 15 µM, respectively. The CC50 in data set [8] was 55 µM; in data set [10], 60 µM. Also, the CC50 at 24 h in data set [12] came to 15 µM.
For `CC(C)CCC[C@@H](C)[C@H]1CC[C@H]2[C@@H]3C(=O)C=C4C[C@@H](O)CC[C@]4(C)[C@H]3CC[C@]12C` [7-OXOCHOLESTEROL], in data set [5], the Activity result is “Toxic”. Also, in [6], the viability at 24 h, 50 µM was 70.5%. Moreover, the IC50 in data set [7] is 20 µM; in data set [9] it was 20 µM; in [11], 10 µM. The CC50 in data set [8] and in data set [10] was 60 µM in each case. The CC50 at 24 h in data set [12] was determined as 30 µM.
